Experimental findings from ChEMBL document CHEMBL1132423, “Diethylcarbamoylating/nitroxylating agents as dual action inhibitors of aldehyde dehydrogenase: a disulfiram-cyanamide merger” (J Med Chem, 1999) are described below.

In the assay the target is T1, Aldehyde dehydrogenase 1A1 (Rattus norvegicus) (UniProt P51647).
T1 sequence (whole entry): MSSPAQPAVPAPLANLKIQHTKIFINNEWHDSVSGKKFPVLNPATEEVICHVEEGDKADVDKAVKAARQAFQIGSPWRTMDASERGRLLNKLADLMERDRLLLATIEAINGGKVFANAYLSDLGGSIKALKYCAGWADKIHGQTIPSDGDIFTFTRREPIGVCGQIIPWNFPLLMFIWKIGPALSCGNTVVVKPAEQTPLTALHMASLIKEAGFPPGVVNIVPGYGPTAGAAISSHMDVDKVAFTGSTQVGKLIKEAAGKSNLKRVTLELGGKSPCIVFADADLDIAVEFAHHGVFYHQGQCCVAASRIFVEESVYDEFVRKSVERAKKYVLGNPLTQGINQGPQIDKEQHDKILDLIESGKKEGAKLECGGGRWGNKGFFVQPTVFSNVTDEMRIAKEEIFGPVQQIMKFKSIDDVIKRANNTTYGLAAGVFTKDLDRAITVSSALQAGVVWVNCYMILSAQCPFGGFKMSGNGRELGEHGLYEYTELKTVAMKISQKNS
Put plainly: Percent inhibition of rat hepatic mitochondrial […] dehydrogenase. The conditions noted are these: concentration not given here.

In general, inhibition refers to the percentage by which the read-out fell short of the control. A low value points to a weak effect.

`CCOC(=O)N(OC(=O)N(CC)CC)S(=O)(=O)c1ccccc1` yielded an inhibition greater than 70%.
